How the values were obtained:
Type in all cases: biochemical
PDE4D2 = PDE4D2 (Homo sapiens, UniProt Q08499); experiment: PDE4 inhibitory activity assay (FAM-cAMP enzymatic reaction), PDE4D2
Method in brief: (§1)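 Each isoform is incubated with test compound for 15 min at room temperature before FAM-cAMP substrate starts a 30-min reaction.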

PDE4A1A = target: T1, PDE4A1A (Homo sapiens, UniProt P27815); experiment: PDE4 inhibitory activity assay (FAM-cAMP enzymatic reaction), PDE4A1A
T1 construct: purchased BPS 60040
T1 sequence (P27815 1-647 isoform P27815-4): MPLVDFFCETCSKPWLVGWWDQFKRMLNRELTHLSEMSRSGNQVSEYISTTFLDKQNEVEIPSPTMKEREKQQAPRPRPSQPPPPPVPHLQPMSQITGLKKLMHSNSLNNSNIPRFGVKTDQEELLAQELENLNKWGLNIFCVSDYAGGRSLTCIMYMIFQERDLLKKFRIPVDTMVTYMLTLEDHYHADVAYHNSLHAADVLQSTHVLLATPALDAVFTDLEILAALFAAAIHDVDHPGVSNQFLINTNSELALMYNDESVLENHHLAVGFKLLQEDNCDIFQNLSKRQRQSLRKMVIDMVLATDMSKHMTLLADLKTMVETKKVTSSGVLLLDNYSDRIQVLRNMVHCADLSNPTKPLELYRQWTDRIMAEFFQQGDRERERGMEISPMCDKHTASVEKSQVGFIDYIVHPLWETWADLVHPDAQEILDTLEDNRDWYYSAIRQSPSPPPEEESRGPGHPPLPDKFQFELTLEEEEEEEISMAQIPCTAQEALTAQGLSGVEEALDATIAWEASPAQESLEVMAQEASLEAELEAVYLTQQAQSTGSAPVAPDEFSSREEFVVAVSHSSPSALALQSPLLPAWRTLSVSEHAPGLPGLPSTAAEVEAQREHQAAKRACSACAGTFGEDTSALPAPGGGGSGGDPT
Method in brief: as §1

PDE4B1 = target: T2, PDE4B1 (Homo sapiens, UniProt Q07343); experiment: PDE4 inhibitory activity assay (FAM-cAMP enzymatic reaction), PDE4B1
T2 construct: purchased BPS 60041
T2 sequence (Q07343 whole entry): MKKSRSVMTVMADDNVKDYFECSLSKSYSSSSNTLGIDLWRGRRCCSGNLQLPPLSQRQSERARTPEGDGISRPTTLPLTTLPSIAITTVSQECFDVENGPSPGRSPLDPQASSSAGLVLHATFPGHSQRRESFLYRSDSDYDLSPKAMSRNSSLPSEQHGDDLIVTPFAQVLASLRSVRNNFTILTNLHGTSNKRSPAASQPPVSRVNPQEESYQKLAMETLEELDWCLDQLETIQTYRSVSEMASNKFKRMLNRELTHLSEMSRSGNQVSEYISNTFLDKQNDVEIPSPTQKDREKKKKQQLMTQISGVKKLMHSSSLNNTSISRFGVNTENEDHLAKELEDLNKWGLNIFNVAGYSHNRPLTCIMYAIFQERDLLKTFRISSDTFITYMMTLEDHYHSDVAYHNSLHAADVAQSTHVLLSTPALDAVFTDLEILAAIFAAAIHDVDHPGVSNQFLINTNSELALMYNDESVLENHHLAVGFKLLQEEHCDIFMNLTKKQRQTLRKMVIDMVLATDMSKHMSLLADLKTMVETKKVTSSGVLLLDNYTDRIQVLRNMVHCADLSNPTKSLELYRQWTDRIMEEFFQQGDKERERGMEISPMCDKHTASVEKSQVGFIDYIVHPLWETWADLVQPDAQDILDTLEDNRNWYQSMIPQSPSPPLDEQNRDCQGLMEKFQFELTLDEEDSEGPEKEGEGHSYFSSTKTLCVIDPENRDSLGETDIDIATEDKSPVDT
Method in brief: as §1

[1] = compared with Apremilast and Example 11 of WO2018036470 (WX011)

Chain of PDE4D2 (Q08499 303-809): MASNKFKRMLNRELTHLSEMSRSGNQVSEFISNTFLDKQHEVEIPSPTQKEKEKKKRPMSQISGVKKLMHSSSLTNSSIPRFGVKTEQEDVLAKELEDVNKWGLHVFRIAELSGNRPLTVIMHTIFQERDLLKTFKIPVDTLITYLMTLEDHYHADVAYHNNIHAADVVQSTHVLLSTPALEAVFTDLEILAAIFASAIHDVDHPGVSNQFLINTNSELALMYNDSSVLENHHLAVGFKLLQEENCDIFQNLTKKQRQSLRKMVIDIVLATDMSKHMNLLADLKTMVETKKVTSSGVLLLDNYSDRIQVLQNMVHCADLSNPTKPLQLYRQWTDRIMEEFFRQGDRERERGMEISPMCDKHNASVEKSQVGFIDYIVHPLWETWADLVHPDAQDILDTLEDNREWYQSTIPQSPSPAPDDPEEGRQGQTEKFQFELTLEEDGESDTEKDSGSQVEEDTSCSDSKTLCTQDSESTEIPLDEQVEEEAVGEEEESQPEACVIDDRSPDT

## CCOc1nc([C@@H](CS(C)(=O)=O)n2c(=O)[nH]c3cc(-c4ccccc4C4CC4)ccc32)ccc1OC [Ex. 148, (S)-5-(2-cyclopropylphenyl)-1-(1-(6-ethoxy-5-methoxypyridin-2-yl)-2-(methylsulfonyl)ethyl)-1H-benzo[d]imidazol-2(3H)-one]
PDE4D2
  PDE4 D2 inhibitory effect at 20 nM: +
PDE4A1A
  PDE4 A1 inhibitory effect at 20 nM: +
PDE4B1
  PDE4 B1 inhibitory effect at 20 nM: +

## CCOc1nc([C@H](CS(C)(=O)=O)n2c(=O)[nH]c3c(C)c(-c4cc(F)ccc4F)cnc32)ccc1OC [Ex. 30, (R)-6-(2,5-difluorophenyl)-3-(1-(6-ethoxy-5-methoxypyridin-2-yl)-2-(methylsulfonyl)ethyl)-7-methyl-1H-imidazo[4,5-b]pyridin-2(3H)-one]
PDE4D2
  PDE4 D2 inhibitory effect at 20 nM: −
PDE4D2; [1]
  inhibitory activity against PDE4D2 compared with Apremilast and WX011: significantly enhanced inhibitory activity
PDE4A1A
  PDE4 A1 inhibitory effect at 20 nM: −
PDE4A1A; [1]
  inhibitory activity against PDE4A1A compared with Apremilast and WX011: significantly enhanced inhibitory activity
PDE4B1
  PDE4 B1 inhibitory effect at 20 nM: −
PDE4B1; [1]
  inhibitory activity against PDE4B1 compared with Apremilast and WX011: significantly enhanced inhibitory activity

## CCOc1nc([C@@H](CS(C)(=O)=O)n2c(=O)[nH]c3c(C)c(-c4ccc(F)cc4)cnc32)ccc1OC [Ex. 6, (S)-3-(1-(6-ethoxy-5-methoxypyridin-2-yl)-2-(methylsulfonyl)ethyl)-6-(4-fluorophenyl)-7-methyl-1H-imidazo[4,5-b]pyridin-2(3H)-one]
PDE4D2
  PDE4 D2 inhibitory effect at 20 nM: =
PDE4A1A
  PDE4 A1 inhibitory effect at 20 nM: +
PDE4B1
  PDE4 B1 inhibitory effect at 20 nM: +

## CCOc1nc([C@@H](CS(C)(=O)=O)n2c(=O)n(CC)c3c(C)c(-c4ccc(F)cc4)cnc32)ccc1OC [Ex. 48, (S)-3-(1-(6-ethoxy-5-methoxypyridin-2-yl)-2-(methylsulfonyl)ethyl)-1-ethyl-6-(4-fluorophenyl)-7-methyl-1H-imidazo[4,5-b]pyridin-2(3H)-one]
PDE4D2
  PDE4 D2 inhibitory effect at 20 nM: +
PDE4A1A
  PDE4 A1 inhibitory effect at 20 nM: +
PDE4B1
  PDE4 B1 inhibitory effect at 20 nM: +

## CCOc1nc([C@H](CS(C)(=O)=O)n2c(=O)[nH]c3cc(-c4ccccc4C)ccc32)ccc1OC [Ex. 141, (R)-1-(1-(6-ethoxy-5-methoxypyridin-2-yl)-2-(methylsulfonyl)ethyl)-5-(o-methylphenyl)-1H-benzo[d]imidazol-2(3H)-one]
PDE4D2
  PDE4 D2 inhibitory effect at 20 nM: +
PDE4A1A
  PDE4 A1 inhibitory effect at 20 nM: +
PDE4B1
  PDE4 B1 inhibitory effect at 20 nM: +

## CCOc1nc([C@H](CS(C)(=O)=O)n2c(=O)[nH]c3c(C)c(-c4ccccc4C#N)cnc32)ccc1OC [Ex. 16, (R)-2-(3-(1-(6-ethoxy-5-methoxypyridin-2-yl)-2-(methylsulfonyl)ethyl)-7-methyl-2-oxo-2,3-dihydro-1H-imidazo[4,5-b]pyridin-6-yl)benzonitrile]
PDE4D2
  PDE4 D2 inhibitory effect at 20 nM: −
PDE4A1A
  PDE4 A1 inhibitory effect at 20 nM: −
PDE4B1
  PDE4 B1 inhibitory effect at 20 nM: −

## CCOc1nc([C@@H](CS(C)(=O)=O)N2C(=O)c3csc(N)c3C2=O)ccc1OC [Ex. 223, (S)-1-amino-5-(1-(6-ethoxy-5-methoxypyridin-2-yl)-2-(methylsulfonyl)ethyl)-4H-thieno[3,4-c]pyrrol-4,6 (5H)-dione]
PDE4D2
  PDE4 D2 inhibitory effect at 20 nM: +
PDE4A1A
  PDE4 A1 inhibitory effect at 20 nM: +
PDE4B1
  PDE4 B1 inhibitory effect at 20 nM: +

## CCOc1nc([C@@H](CS(C)(=O)=O)n2c(=O)[nH]c3c(C)c(-c4cccc(F)c4F)cnc32)ccc1OC [Ex. 25, (S)-6-(2,3-difluorophenyl)-3-(1-(6-ethoxy-5-methoxypyridin-2-yl)-2-(methylsulfonyl)ethyl)-7-methyl-1H-imidazo[4,5-b]pyridin-2(3H)-one]
PDE4D2
  PDE4 D2 inhibitory effect at 20 nM: +
PDE4A1A
  PDE4 A1 inhibitory effect at 20 nM: +
PDE4B1
  PDE4 B1 inhibitory effect at 20 nM: +

## CCOc1nc([C@@H](CS(C)(=O)=O)n2c(=O)[nH]c3c(C)c(-c4cc(OC)ccc4F)cnc32)ccc1OC [Ex. 41, (S)-6-(2-fluoro-5-methoxyphenyl)-3-(1-(6-ethoxy-5-methoxypyridin-2-yl)-2-(methylsulfonyl)ethyl)-7-methyl-1H-imidazo[4,5-b]pyridin-2(3H)-one]
PDE4D2
  PDE4 D2 inhibitory effect at 20 nM: +
PDE4A1A
  PDE4 A1 inhibitory effect at 20 nM: +
PDE4B1
  PDE4 B1 inhibitory effect at 20 nM: +

From US20230141101A1, “PDE4 INHIBITOR COMPOUND AND MEDICAL USE THEREOF” (Suzhou Longbotai Pharmaceuticals Co., Ltd., priority 2020, published 2023)
